Patent publication US5561149A, “Use of certain imidazol carbazols in treating stress-related manic-depressive disorders” (priority 1986, dated 1996)
Where two headings read alike, the source gives them in different places.

Experiments:
[1] = test system: intruder mice (approach-oriented social activities); experiment: Intruder test, Study B (large cage); type: in vivo, mouse; conditions: for escape behaviour: single compounds: 1 microgram/kg, in general about 0.01 to about 100 microgram/kg i.p.
Procedure: Study A was modified using a large cage (59×38.5×20 cm) which allowed greater freedom of movement so that elements of defense could be separated more clearly from the approach-oriented social activities. The compounds of the invention were given i.p. at doses from about 0.01 to about 100 microgram/kg 45 minutes before the encounter.
Indruders received the drug. […] In this test at a dose of 1 microgram/kg compound E promoted 8 elements of approach oriented social activities by about 40 per cent. […] Compound H at the same dose promoted 3 elements of approach-oriented social activities by about 40 per cent.

[2] = test system: intruder mice (social behaviour); experiment: Intruder test, Study A; type: in vivo, mouse; conditions: 1 mg/kg p.o., 1 hour before the encounter
Procedure: A foreign male mouse (intruder), placed for 6 minutes, into the cage of an isolated male is attacked and responds with defensive escape patterns collectively known as "flight". Flight and associated defensive activities over-ride the intruder's tendency to approach the attacker so that much of the behaviour includes social forms of ambivalence.
Intruders receiving oral doses of benzodiazepines show less of these defensive activities and more approach-oriented behaviour (A. K. Dixon Triangle 1982, 21, 95-105; M. Krisak, Br. J. Pharmacol 1975, 55, 141-150), e.g. investigation, aggression and sexual activity.
The compounds of the invention are administered 1 hour before the encounter per-orally at from about 0.1 to about 10 mg/kg. Groups of 8 mice pairs are used. The frequency and duration of social and non-social behaviour of the mice were recorded using ethological techniques.

[3] = test system: male OF-1 mice (social interactions and feeding); experiment: Competitive feeding, Study C; type: in vivo, mouse
Procedure: In this test 8 pairs of male OF-1 mice deprived of food for 6 hours are forced to compete over 6 minutes for a single food pellet. […]

[4] = test system: mice (approach-oriented behaviour); experiment: Approach-oriented behaviour in mice in stress-situations; type: in vivo, mouse; conditions: for effect on promoting social interaction under stress related conditions: mouse, in vivo; for approach-oriented social behaviours: food deprived mice under white light
Procedure: Trials have been carried out on the effects of the compounds of the invention on approach-oriented behaviour in mice. The compounds increase approach-oriented behaviour in stress-situations normally inhibitory to social responses. Thus situations involving unfamiliar surroundings, contact with foreign aggressive opponents, competition for food, were created under reversed lighting conditions whereby observations were performed during the darkphase. Under these conditions, untreated rodents exihibit high levels of flight, particularly depressive ambivalence and escape behaviour, but low levels of social behaviour involving approach activity.

[5] = test system: mice (stretched attend postures); experiment: Stretched Attend Postures (SAP) (No conflict); type: in vivo, mouse; conditions: doses higher than 0.1 mg/kg
Procedure: Mice placed upon an unfamiliar elevated platform in a novel environment display characteristic stretched body postures called SAP's which signify amibivalence.
The compounds of the invention administered p.o. at a dose of from about 0.1 to about 10 mg/kg. 2 hours before the test reduce the duration of SAP when placed on the platform for 2 minutes under conditions where no other mice are present.

[6] = test system: plasma corticosterone; experiment: Corticosterone levels (Endocrinological profile); type: in vivo, mouse; conditions: reduction at high, increase of basal levels at low doses
[7] = Bioavailability and pharmacokinetic profile after nasal / oral administration; type: in vivo, mammals including rhesus monkeys and humans; conditions: plasma; ca. 5 to 10 minutes following nasal administration
Procedure: The bioavailability and pharmacokinetic profile of the compounds of the invention may be determined in conventional manner, e.g. in mammals including rhesus monkeys and humans. The concentrations of the compounds of the invention in the blood plasma after administration of from about 0.01 to about 10 mg/kg to each nostril, e.g. 7.5 mg in the case of compound E, locally to the nasal mucous membrane, e.g. as a spray, may be determined in conventional manner by e.g. radioimmunoassay or HPLC methods. The compounds of the invention are rapidly absorbed, e.g. over about 10 minutes.

[8] = 26 week toxicity study in the dog; conditions: in vivo, po, 26 weeks, read-out: no toxic effect bowel (dose), dog
Description: (§1) Toxicity and Tolerability studies may be effected in conventional manner with the compounds of the invention to determine the upper dosage.
(§2) Toxicity studies may be effected for example in the rat and the dog over for example 26 weeks.

[9] = 26 week toxicity study in the rat; conditions: in vivo, po, 26 weeks, read-out: no toxic effect (dose), rat
Description: as §1, §2

[10] = test system: healthy human volunteers; experiment: Tolerability in healthy human volunteers; type: in vivo; conditions: single doses
Description: as §1

[11] = test system: 5-HT3 receptors; conditions: rabbit vagus; P. Donatsch et al., Br.j. Pharmacol. 1984, 81,348; cited from earlier work
[12] = test system: 5-HT3 receptors; conditions: rabbit heart; P. Donatsch et al., Br.j. Pharmacol. 1984, 81,348; cited from earlier work
[13] = test system: 5-HT3 receptors; conditions: guinea pig ileum; P. Donatsch et al., Br.j. Pharmacol. 1984, 81,348; cited from earlier work
[14] = Bioavailability of co-administered peptide (salmon calcitonin) on nasal administration; type: in vivo; conditions: rhesus monkey
Procedure: Additionally, the compounds of the invention when administered, e.g. at a dose of from 0.01 to 10 mg/kg with a therapeutically effective dosage of another compound, e.g. a peptide, such as salmon calcitonin increases the absorption thereof.

[15] = test system: mice (stretched attend postures); conditions: H. P. Kasermann, Psychopharmacology 1986, 89, 31-37; cited from earlier work
[16] = 0.1 mg/kg p.o., 2 hours before the encounter

For `Cc1nccn1CC1CCc2c(c3ccccc3n2C)C1=O` (stereo not shown) [compound H, 1,2,3,9-tetrahydro-9-methyl-3-[(2-methyl-1H-imidazol-1-yl)methyl]-4H-carbazol-4-one], the “promotion of 3 elements of approach-oriented social activities” value ([1]; 1 microgram/kg i.p., 45 minutes before the encounter, 3 elements) was “about 40 per cent”, the cage exploratory behaviour ([1]; 1 microgram/kg i.p., indicative of a stimulant effect) was “increase cage exploratory behaviour” and the escape behaviour [1] was “effect on escape behaviour was less”.
In the case of `CN1[C@@H]2CC[C@H]1C[C@@H](OC(=O)c1c[nH]c3ccccc13)C2` [compound E, Indol-3-yl carboxylic acid endo-8-methyl-8-aza-bicyclo-[3.2.1]oct-3-yl ester], the “frequency of social inter-action” value ([2]; increased from ca 60) is reported as roughly 80, the “duration of social inter-action” value ([2]; increased from ca 90) is reported as roughly 120 s and the “promotion of 8 elements of approach oriented social activities” value ([1]; 1 microgram/kg i.p., 45 minutes before the encounter, 8 elements) is reported as “about 40 per cent”. The escape behaviour [1] was “reduced escape behaviour”, the “increase in mean frequency of social interactions” value ([3]; 0.01 mg/kg, competitive feeding experiment study c)) was 54 per cent and the “increase in duration of feeding” value [3, 16] was 55 per cent. For the same compound, the “increase in duration of social interactions relative to controls” value [3, 16] was 321 per cent, the “increase in frequency of feeding” value [3, 16] was 4 per cent and the “increase in frequency of social interactions relative to controls” value [3, 16] was 54%. For the same compound, the “effect on promoting social interaction under stress related conditions” value [4] was “pronounced effect”, the “effect on SAP at higher doses” value [5] was “the effect was less” and the “corticosterone profile compared with diazepam” value [6] was “analogous to that observed with diazepam”. For the same compound, the concentration at 10 min [7] was 200 ng/mL, the NOAEL at 4368 h [8] was 5 to 20 mg/kg/day and the NOAEL at 4368 h [9] was 16 to 45 mg/kg/day. For the same compound, the “well tolerated single dose without relevant side effects” value [10] was “up to 150 mg”, the “antagonistic action against 5-HT3 receptors” value [11] was “antagonistic action” and the “antagonistic action against 5-HT3 receptors” value [12] was “antagonistic action”. The “antagonistic action against 5-HT3 receptors” value [13] was “antagonistic action”.
With `CC(NC(C)(C)C)C(=O)c1cccc(Cl)c1` (stereo not shown) [bupropion] the “increase in mean frequency of social interactions” value ([3]; 2.5 mg/kg, competitive feeding experiment study c)) was 179 per cent, the approach-oriented social behaviours [4] was “increase approach-oriented social behaviours” and the “effect on promoting social interaction under stress related conditions” value [4] was “pronounced effect”.
With salmon calcitonin the “bioavailability of salmon calcitonin (AUC up to 2 hours), with compound E” value ([14]; salmon calcitonin 100 IU + compound E 15 mg, half to each nostril) was 1.632 m IU/ml/hr/plasma and the “bioavailability of salmon calcitonin (AUC up to 2 hours), before increase by compound E” value ([14]; salmon calcitonin 100 IU nasal, without compound E) was 0.08 mIU/ml/hr.
In the case of `CN1C(=O)CN=C(c2ccccc2)c2cc(Cl)ccc21` [diazepam], the ambivalent behaviour ([4]; reversed lighting, darkphase, stress-situations) is reported as “reduce the ambivalent behaviour” and the “social behaviour / approach-oriented behaviour in stress-situations” value ([4]; reversed lighting, darkphase, stress-situations normally inhibitory to social responses) is reported as “can increase social behaviour”.
In the case of `O=C1CC2(CCCC2)CC(=O)N1CCCCN1CCN(c2ncccn2)CC1` [buspirone], the “incidence of SAP's” value [15] is listed as “reduce the incidence of SAP's”.
In the case of `CN(C)CCCN1c2ccccc2CCc2ccccc21` [impramine], the approach-oriented social behaviours [4] is reported as “increase approach-oriented social behaviours”.
